From ChEMBL document CHEMBL1153748 (J Med Chem, 2010)
pEC50: −log10 of the molar value.

Legend:
[1] = molecular target: T1, Peroxisome proliferator-activated receptor alpha (Homo sapiens, UniProt Q07869); assay: Agonist activity at human PPARalpha ligand binding domain expressed in human 293T cells co-transfected with Gal4-DBD by luciferase transactivation assay; type: cell-based; settings: for pEC50: read-out: EC50
T1 sequence (Q07869 whole entry): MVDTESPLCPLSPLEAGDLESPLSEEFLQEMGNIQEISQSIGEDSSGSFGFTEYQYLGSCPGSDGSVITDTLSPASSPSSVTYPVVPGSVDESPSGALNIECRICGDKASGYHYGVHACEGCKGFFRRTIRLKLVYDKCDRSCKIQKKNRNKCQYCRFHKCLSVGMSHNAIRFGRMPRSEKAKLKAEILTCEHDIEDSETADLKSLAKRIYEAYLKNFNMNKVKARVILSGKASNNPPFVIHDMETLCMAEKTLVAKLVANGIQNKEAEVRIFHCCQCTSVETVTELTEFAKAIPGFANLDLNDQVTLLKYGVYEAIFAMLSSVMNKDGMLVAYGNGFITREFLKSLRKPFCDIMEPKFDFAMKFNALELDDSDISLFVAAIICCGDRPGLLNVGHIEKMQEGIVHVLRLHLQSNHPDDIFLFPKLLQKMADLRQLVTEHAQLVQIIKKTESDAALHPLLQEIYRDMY

[2] = molecular target: T2, Peroxisome proliferator-activated receptor delta (Homo sapiens, UniProt Q03181)
T2 sequence (Q03181 whole entry): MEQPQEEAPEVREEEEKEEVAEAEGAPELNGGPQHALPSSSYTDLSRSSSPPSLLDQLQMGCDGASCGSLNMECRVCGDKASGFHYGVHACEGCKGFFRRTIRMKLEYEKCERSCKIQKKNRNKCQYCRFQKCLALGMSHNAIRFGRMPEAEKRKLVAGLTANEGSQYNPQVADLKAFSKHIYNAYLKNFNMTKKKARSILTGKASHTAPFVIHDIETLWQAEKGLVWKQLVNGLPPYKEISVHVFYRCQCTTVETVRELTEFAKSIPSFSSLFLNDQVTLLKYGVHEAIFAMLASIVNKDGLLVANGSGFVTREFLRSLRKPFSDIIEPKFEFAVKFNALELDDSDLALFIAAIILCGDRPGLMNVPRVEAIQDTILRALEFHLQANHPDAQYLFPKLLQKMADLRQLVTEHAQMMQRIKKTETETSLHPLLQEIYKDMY

[3] = molecular target: T3, Peroxisome proliferator-activated receptor gamma (Homo sapiens, UniProt P37231); type: cell-based, 293T; settings: for pEC50: read-out: EC50
T3 sequence (P37231 whole entry): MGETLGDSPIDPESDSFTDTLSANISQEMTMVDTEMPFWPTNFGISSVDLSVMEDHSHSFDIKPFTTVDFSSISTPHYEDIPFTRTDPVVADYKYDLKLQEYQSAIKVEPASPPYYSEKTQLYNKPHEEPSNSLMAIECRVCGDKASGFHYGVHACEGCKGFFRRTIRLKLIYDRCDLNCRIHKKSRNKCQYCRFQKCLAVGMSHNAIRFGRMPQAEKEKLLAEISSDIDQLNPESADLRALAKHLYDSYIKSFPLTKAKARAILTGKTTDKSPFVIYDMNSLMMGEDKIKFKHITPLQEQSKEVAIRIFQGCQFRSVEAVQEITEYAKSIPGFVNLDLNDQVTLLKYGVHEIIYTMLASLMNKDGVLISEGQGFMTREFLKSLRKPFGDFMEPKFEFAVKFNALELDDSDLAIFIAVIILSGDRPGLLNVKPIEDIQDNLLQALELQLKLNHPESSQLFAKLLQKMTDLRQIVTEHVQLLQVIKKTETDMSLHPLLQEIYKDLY

SMILES	pEC50 [1]	pEC50 [2]	pEC50 [3]	EC50 ([1]; 293t)	EC50 ([3]; 293t)
COc1ccc(-c2nc(COc3ccc(CC(=O)O)cc3)sc2-c2ccc(C(F)(F)F)cc2)cc1	< 5.00	5.89	< 5.00		
Cc1cc(OCc2nc(C)c(-c3ccc(Cl)cc3)s2)ccc1OCC(=O)O	< 5.00	6.49	< 5.00		
Cc1cc(OCc2nc(-c3ccc(Cl)cc3)cs2)ccc1OCC(=O)O	< 5.00	5.33	< 5.00		
COc1ccc(-c2nc(COc3ccc(OCC(=O)O)c(C)c3)sc2-c2ccc(C(F)(F)F)cc2)cc1	< 5.00	7.40	< 5.00		
COc1ccc(-c2nc(COc3ccc(OCC(=O)O)c(C)c3)oc2-c2ccc(-c3ccccc3)cc2)cc1	< 5.00	8.00	< 5.00		
COc1ccc(-c2nc(COc3ccc(OCC(=O)O)c(C)c3)sc2-c2ccc(OC(F)(F)F)cc2)cc1F	< 5.00	7.25	< 5.00		
Cc1cc(OCc2nc(-c3ccccc3)c(-c3ccccc3)s2)ccc1OCC(=O)O	< 5.00	< 5.00	< 5.00		
COc1ccc(-c2nc(COc3ccc4oc(C(=O)O)cc4c3)sc2-c2ccc(C(F)(F)F)cc2)cc1	< 5.00	< 5.00	< 5.00		
COc1ccc(-c2nc(COc3ccc(CCC(=O)O)c(C)c3)sc2-c2ccc(C(F)(F)F)cc2)cc1	< 5.00	6.85	< 5.00		
COc1cccc(-c2nc(COc3ccc(OCC(=O)O)c(C)c3)sc2-c2ccc(OC(F)(F)F)cc2)c1	< 5.00	6.92	< 5.00		
Cc1cc(OCc2nc(-c3cccnc3)c(-c3ccc(OC(F)(F)F)cc3)s2)ccc1OCC(=O)O	< 5.00	7.17	< 5.00		
COc1ccc(-c2nc(COc3ccc(OCC(=O)O)c(C)c3)oc2-c2ccc(Cl)c(Cl)c2)cc1	< 5.00	7.15	< 5.00		
Cc1cc(OCc2nc(-c3ccc(-c4ccccc4)cc3)c(-c3ccc(OC(F)(F)F)cc3)s2)ccc1OCC(=O)O	< 5.00	6.80	< 5.00		
COc1ccc(-c2sc(COc3ccc(OCC(=O)O)c(C)c3)nc2-c2ccccc2)cc1	< 5.00	5.58	< 5.00		
Cc1cc(OCc2nc(-c3ccc(N4CCOCC4)cc3)c(-c3ccc(OC(F)(F)F)cc3)s2)ccc1OCC(=O)O	< 5.00	7.35	< 5.00		
COc1ccc(-c2nc(COc3ccc4c(CC(=O)O)cccc4c3)sc2-c2ccc(C(F)(F)F)cc2)cc1	< 5.00	6.13	< 5.00		
COc1ccc(-c2nc(COc3ccc(OCC(=O)O)c(C)c3)oc2-c2ccc(OC)cc2)cc1	< 5.00	6.92	< 5.00		
Cc1ccc(-c2sc(COc3ccc(OCC(=O)O)c(C)c3)nc2-c2cccnc2)cc1	< 5.00	6.72	< 5.00		
Cc1cc(OCc2nc(-c3ccc(Cl)cc3)c(-c3ccccc3)s2)ccc1OCC(=O)O	< 5.00	5.23	< 5.00		
COc1ccc(-c2nc(COc3ccc(OCC(=O)O)c(C)c3)oc2-c2ccc(C(F)(F)F)cc2)cc1	< 5.00	8.00	< 5.00		
Cc1cc(OCc2nc(-c3ccc4c(c3)OCCCO4)c(-c3ccc(OC(F)(F)F)cc3)s2)ccc1OCC(=O)O	< 5.00	7.89	< 5.00		
Cc1cc(OCc2nc(-c3cncnc3)c(-c3ccc(OC(F)(F)F)cc3)s2)ccc1OCC(=O)O	< 5.00	7.23	< 5.00		
COc1ccc(-c2nc(COc3ccc(OCC(=O)O)c(C)c3)sc2-c2ccccc2)cc1	< 5.00	6.72	< 5.00		
COc1ccc(-c2nc(COc3ccc(OCC(=O)O)c(C)c3)sc2-c2ccccc2C(F)(F)F)cc1	< 5.00	< 5.00	< 5.00		

SMILES	pEC50 [1]	pEC50 [2]	pEC50 [3]	EC50 ([1]; 293t)	EC50 ([3]; 293t)
Cc1cc(OCc2nc(-c3ccc4c(c3)OCCO4)c(-c3ccc(OC(F)(F)F)cc3)s2)ccc1OCC(=O)O	< 5.00	7.77	< 5.00		
COc1ccc(-c2nc(COc3ccc(OCC(=O)O)c(C)c3)oc2-c2cnc3ccccc3c2)cc1	< 5.00	6.96	< 5.00		
Cc1cc(OCc2nc(-c3ccc(C(F)(F)F)cc3)c(-c3ccc(OC(F)(F)F)cc3)s2)ccc1OCC(=O)O	< 5.00	6.48	< 5.00		
COc1ccc(-c2nc(COc3ccc(OCC(=O)O)c(C)c3)oc2-c2cccc(C(F)(F)F)c2)cc1	< 5.00	6.19	< 5.00		
Cc1cc(OCc2nc(-c3ccc(N4CCOCC4)nc3)c(-c3ccc(OC(F)(F)F)cc3)s2)ccc1OCC(=O)O	< 5.00	7.74	< 5.00		
Cc1cc(OCc2nc(-c3ccc(-c4ccccc4)cc3)c(-c3ccc(-c4ccccc4)cc3)s2)ccc1OCC(=O)O	< 5.00	6.89	< 5.00		
CCCOc1ccc(-c2nc(COc3ccc(OCC(=O)O)c(C)c3)sc2-c2ccc(OC(F)(F)F)cc2)cc1	< 5.00	7.46	< 5.00		
Cc1cc(OCc2nc(-c3ccc(N4CCCC4)cc3)c(-c3ccc(OC(F)(F)F)cc3)s2)ccc1OCC(=O)O	< 5.00	6.39	< 5.00		
CCN(CC)c1ccc(-c2nc(COc3ccc(OCC(=O)O)c(C)c3)sc2-c2ccc(OC(F)(F)F)cc2)cc1	< 5.00	7.52	< 5.00		
COc1ccc(-c2sc(COc3ccc(OCC(=O)O)c(C)c3)nc2C)cc1	< 5.00	< 5.00	< 5.00		
Cc1cc(OCc2nc(-c3ccc(NS(C)(=O)=O)cc3)c(-c3ccc(OC(F)(F)F)cc3)s2)ccc1OCC(=O)O	< 5.00	6.11	< 5.00		
COc1ccc(-c2nc(COc3ccc(OCC(=O)O)c(C)c3)oc2-c2ccc(OC(F)(F)F)cc2)cc1	< 5.00	8.00	< 5.00		
COc1ccc(-c2nc(COc3ccc(OCC(=O)O)c(C)c3)sc2-c2ccc3ccccc3c2)cc1	< 5.00	7.70	< 5.00		
Cc1cc(CN(CC(=O)Nc2ccc(Cl)cc2Cl)C2CCCCC2)ccc1OCC(=O)O		8.52		Not Active	Not Active
Cc1cc(OCc2nc(-c3ccccc3)c(-c3ccc(Cl)cc3)s2)ccc1OCC(=O)O	< 5.00	6.89	< 5.00		
COc1ccc(-c2nc(COc3ccc(OCC(=O)O)c(C)c3)sc2-c2ccc(Cl)nc2)cc1	< 5.00	6.06	< 5.00		
Cc1cc(OCc2nc(-c3ccc4[nH]c(=O)oc4c3)c(-c3ccc(OC(F)(F)F)cc3)s2)ccc1OCC(=O)O	< 5.00	6.26	< 5.00		
COc1ccc(-c2nc(COc3ccc(OCC(=O)O)c(C)c3)sc2-c2cc3ccccc3o2)cc1	< 5.00	7.30	< 5.00		
CCCc1ccc(-c2oc(COc3ccc(OCC(=O)O)c(C)c3)nc2-c2ccc(OC)cc2)cc1	< 5.00	8.00	< 5.00		
Cc1cc(OC/C=C(\C#Cc2ccc(C(F)(F)F)cc2)c2ccc(Br)cc2)ccc1OCC(=O)O	< 5.00	6.89	< 5.00		
COc1ccc(-c2nc(COc3ccc(OCC(=O)O)c(C)c3)sc2-c2ccc(OC)c(Cl)c2)cc1	< 5.00	6.89	< 5.00		
COc1ncc(-c2nc(COc3ccc(OCC(=O)O)c(C)c3)oc2-c2ccc(OC(F)(F)F)cc2)cn1	< 5.00	7.85	< 5.00		
COc1ccc(-c2nc(COc3ccc(OCC(=O)O)c(C)c3)sc2-c2ccc(Cl)cc2)cc1	< 5.00	7.22	< 5.00		
